One molecule from PubChem BioAssay AID1671221 can be followed below.

For this test, the target named is Tyrosine-protein kinase Blk (Homo sapiens) (UniProt P51451). The test is described as follows: inhibition of BLK tyrosine kinase activity – biochemical, Z'-LYTE FRET, direct format, recombinant human, dose response (AID 1671221). To be noted: Z'-LYTE FRET peptide phosphorylation.

Molecules are shown by their SMILES. pIC50: −log10 of the molar value.

Broadly, the pIC50 is −log10 of the IC50, conventionally taken in molar units.

Tyrosine-protein kinase Blk (Homo sapiens), sequence (P51451 whole entry, looked up): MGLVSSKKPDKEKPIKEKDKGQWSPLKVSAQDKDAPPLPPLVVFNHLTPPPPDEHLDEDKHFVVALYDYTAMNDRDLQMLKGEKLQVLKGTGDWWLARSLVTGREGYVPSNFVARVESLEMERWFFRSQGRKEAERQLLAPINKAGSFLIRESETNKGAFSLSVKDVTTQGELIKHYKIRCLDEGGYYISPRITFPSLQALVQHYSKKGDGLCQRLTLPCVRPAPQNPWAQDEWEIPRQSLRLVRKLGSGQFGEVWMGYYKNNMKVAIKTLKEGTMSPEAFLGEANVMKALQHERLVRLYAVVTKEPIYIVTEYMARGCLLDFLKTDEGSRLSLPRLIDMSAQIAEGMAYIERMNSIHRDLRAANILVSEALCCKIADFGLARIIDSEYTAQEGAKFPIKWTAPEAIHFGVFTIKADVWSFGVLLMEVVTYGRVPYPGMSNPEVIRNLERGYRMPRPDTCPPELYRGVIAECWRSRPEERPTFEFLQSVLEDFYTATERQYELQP

As for `COc1cc2ncnc(Nc3cccc(Cl)c3)c2cc1OC`, the negative logarithm of the IC50 (pIC50) was 5.94.
